In US7320989B2, “Pyridine, pyrimidine, quinoline, quinazoline, and naphthalene urotensin-II receptor antagonists” (Encysive Pharmaceuticals, Inc., priority 2003, dated 2008):

Target: T1, human urotensin-II receptor (UTR cells) (Homo sapiens, UniProt Q9UKP6)
T1 construct: host or cells: 'UTR cells': TE-671 rhabdomyosarcoma cells (endogenous) or CHO cells stably expressing recombinant UTR
T1 sequence (Q9UKP6 1-389): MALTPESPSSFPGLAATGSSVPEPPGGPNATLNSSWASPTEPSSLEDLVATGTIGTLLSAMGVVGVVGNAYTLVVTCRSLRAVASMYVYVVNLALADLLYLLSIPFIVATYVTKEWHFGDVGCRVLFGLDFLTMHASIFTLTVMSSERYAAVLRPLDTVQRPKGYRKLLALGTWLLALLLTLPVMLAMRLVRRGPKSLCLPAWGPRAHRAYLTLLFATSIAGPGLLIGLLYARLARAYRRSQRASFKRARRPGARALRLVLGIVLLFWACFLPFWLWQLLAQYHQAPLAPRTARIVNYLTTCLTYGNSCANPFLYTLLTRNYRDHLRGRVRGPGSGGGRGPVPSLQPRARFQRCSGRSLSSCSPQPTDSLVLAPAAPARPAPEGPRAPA
Experiment: Inhibition of human urotensin-II-induced Ca2+ mobilization in UTR cells
Type: cell-based
Conditions: inhibition of signal induced by 1 nM human U-II, fluo-4AM, FlexStation
Protocol: 1) Inhibition of Human Urotensin-II-Induced Ca^2+ Mobilization in UTR Cells:
The function of urotensin-II was determined by measuring ligand-induced mobilization of intracellular Ca^2+ in a FlexStation scanning fluorometer (Molecular Devices). UTR cells were plated overnight at 50,000 cells/well in 96-well black/clear plates (Costar brand, Fisher 07-200-588). Cells were labeled with fluo-4AM dye (Molecular Probes, F-14201) in Hank's balanced salt solution (HBSS), 20 mM HEPES, 25 mM probenecid, pH 7.4, and then were washed with buffer. During the assay, cells were continuously monitored in the FlexStation and exposed to test compounds at a final concentration of 0.1% DMSO, followed by the addition of 1 nM human U-II. Fluorescence was read every 2 seconds for 2 minutes. The excitation and emission wavelengths used were 485 nm and 525 nm. Inhibition of the urotensin-II-induced signal was calculated using a nonlinear least square fitting program.

IC50: 6.5 µM
SMILES: CN(C)CCOc1cc(Nc2ccnc3cc(C(F)(F)F)ccc23)ccc1Cl [Example 7, (4-chloro-3-(2-dimethylamino-ethoxy)-phenyl)-(7-trifluoromethyl-quinolin-4-yl)-amine]
